Results as given in patent US12630565B2, “DNA-dependent protein kinase inhibitor” (DIZAL (JIANGSU) PHARMACEUTICAL CO., LTD., priority 2019, dated 2026).

Key:
[1] = Metabolic stability assay (human microsomal Clint); assay type: in vitro ADME; conditions: human, pooled human liver microsomes, pH 7.4, 1 μM compound, 1 mg/mL microsomes, 1 mM NADPH, 37° C.
Procedure: 1 μM compound was incubated with 1 mg/mL of microsomes (Pooled HLM with 20 mg/ml protein cone) at 37° C. in 250 μL of buffer (100 mM phosphate buffer, pH-7.4) containing 1 mM NADPH solution. 20 μL of incubation mix was quenched with 5 volumes chilled acetonitrile at different time points 0, 0.5, 5, 10, 15, 20 and 30 min in a fresh 96 well plate. The quench plate was centrifuged at 4000 rpm for 15 min. 40 μL of supernatant was diluted to 200 μL with pure water and analyzed using LC-MS/MS.
In vitro intrinsic clearance of the drugs in the microsome CLint (μl/min/mg) was calculated in the similar manner as the CLint in the hepatocyte.

MDR1, BCRP = assay: MDCKII-MDR1-BCRP efflux assay; assay type: in vitro ADME; conditions: dog, pH 7.4, 5 μM compound, HBSS pH 7.4, read-out: MDCK-Mdr1-BCRP efflux ratio
Procedure: The apical-to-basolateral (A-B) and basolateral-to-apical (B-A) transport of compound in HBSS (25 mM HEPES, pH 7.4) was measured across MDCKII-MDR1-BCRP cell monolayers. Incubations were performed at approximately 37° C. for 120 min, with functionality of the test system being confirmed using 5 μM digoxin as a positive control substrate. Transport of 5 μM compound and control compound were determined by quantifying substrate concentration in the incubation medium of donor compartment at the beginning of the incubation period, and both donor and receiver compartments at the end of the incubation period. The data was used to calculate the apparent permeability (Papp). All incubations were performed in triplicate and integrity of the cell monolayers was confirmed using the marker Lucifer yellow.
The permeability coefficient Pexact (cm/s) was calculated using the equation: […]
The Pexact ratio was calculated using the equation: […]
The efflux ratio was calculated using the equation: […]
Where dCr/dt is the cumulative concentration of compound in the receiver chamber as a function of time (μM/s); Vr is the solution volume in the receiver chamber (0.1 mL on the apical side, 0.3 mL on the basolateral side); A is the surface area for the transport, i.e. 0.11 cm2 for the area of the monolayer; CO is the initial concentration in the donor chamber (μM).

[2] = target: Full length human DNAPK protein (Homo sapiens, UniProt P78527); assay: DNA-PK enzymatic assay (TR-FRET); assay type: biochemical; conditions: 10 μM ATP, 1.6 μM peptide substrate
Rat hepatocyte = assay: Metabolic stability assay (rat hepatocyte Clint); assay type: in vitro ADME; conditions: 1 μM compound, cryopreserved hepatocytes 1 million cells per mL
Procedure: Viability of cryopreserved hepatocytes was determined using trypan blue and the cell conc. was adjusted to […] with buffer. 1 μM compound (in Acetonitrile; 0.01% DMSO) was incubated with 250 μL of hepatocytecells (1 million cells per mL) in a 96 deep well plate. Reaction was stopped at different time points (0, 0.5, 5, 15, 30, 45, 60, 80, 100 and 120 min) by addition of 3 volumes of chilled acetonitrile to 20 μL of reaction mixture and centrifuged at 4° C. for 15 min. 40 μL of supernatant was diluted to 200 μL with pure water and analyzed using LC-MS/MS.
In vitro hepatocyte clearance was estimated based on determination of elimination half-life (T1/2) of compounds disappearance from their initial concentrations. Peak area ratios of each compound (test or control) to IS was calculated. Drug elimination rate constant k (min−1), T1/2 (min), and in vitro intrinsic clearance CLint (μL/min/E6) was calculated according to the following equations: […]
Where Chep (cells×μL^−1) is the cell concentration in the incubation system.

In the case of `Cc1cc2ncnn2cc1Nc1ncc2c(C)nn([C@H]3C[C@@H](C)C3)c2n1` [Example 40, 3-methyl-N-(7-methyl-[1,2,4]triazolo[1,5-a]pyridin-6-yl)-1-((1s,3s)-3-methylcyclobutyl)-1H-pyrazolo[3,4-d]pyrimidin-6-amine], the microsomal CLint at 1 μM [1] is reported as 125 µL/min/mg, the efflux ratio at 120 min, 5 μM (MDR1, BCRP) is reported as 0.9 and the IC50 [2] is reported as 4.2 nM. For the same compound, the “Rat hepatocyte CLint (μl/min/10^−6 cells)” value (“Rat hepatocyte CLint” below) (Rat hepatocyte) was 144.4 μl/min/10^−6 cells.
In the case of `Cc1cc2ncnn2cc1Nc1ncc2c(C)nn(CCCOC(F)(F)F)c2n1` [Example 66, 3-methyl-N-(7-methyl-[1,2,4]triazolo[1,5-a]pyridin-6-yl)-1-(3-(trifluoromethoxy)propyl)-1H-pyrazolo[3,4-d]pyrimidin-6-amine], the microsomal CLint at 1 μM [1] is reported as 120 µL/min/mg, the efflux ratio at 120 min, 5 μM (MDR1, BCRP) is reported as 1.9 and the IC50 [2] is reported as 2 nM. The “Rat hepatocyte CLint” value (Rat hepatocyte) was 15.3 μl/min/10^−6 cells.
With `COC(C)Cn1nc(C)c2cnc(Nc3cn4ncnc4cc3C)nc21` (racemic) [Example 69, 1-(2-methoxypropyl)-3-methyl-N-(7-methyl-[1,2,4]triazolo[1,5-a]pyridin-6-yl)-1H-pyrazolo[3,4-d]pyrimidin-6-amine] the microsomal CLint at 1 μM [1] was 13.6 µL/min/mg, the efflux ratio at 120 min, 5 μM (MDR1, BCRP) was 3 and the IC50 [2] was 8.8 nM. For the same compound, the “Rat hepatocyte CLint” value (Rat hepatocyte) was 6.3 μl/min/10^−6 cells.
`Cc1cc2ncnn2cc1Nc1ncc2c(C)nn(C3CCOCC3C)c2n1` (single isomer, unassigned) [Example 112, 3-methyl-N-(7-methyl-[1,2,4]triazolo[1,5-a]pyridin-6-yl)-1-(3-methyltetrahydro-2H-pyran-4-yl)-1H-pyrazolo[3,4-d]pyrimidin-6-amine] showed a microsomal CLint at 1 μM [1] of 47 µL/min/mg, an efflux ratio at 120 min, 5 μM (MDR1, BCRP) of 3.5 and an IC50 [2] of 3.7 nM. For the same compound, the “Rat hepatocyte CLint” value (Rat hepatocyte) was 7.8 μl/min/10^−6 cells.
`Cc1cc2ncnn2cc1Nc1ncc2c(n1)c([C@H]1CC[C@H](OC(F)F)CC1)nn2C` [Example 12, 3-((1r,4r)-4-(difluoromethoxy)cyclohexyl)-1-methyl-N-(7-methyl-[1,2,4]triazolo[1,5-a]pyridin-6-yl)-1H-pyrazolo[4,3-d]pyrimidin-5-amine] showed a microsomal CLint at 1 μM [1] of 109 µL/min/mg, an efflux ratio at 120 min, 5 μM (MDR1, BCRP) of 2.1 and an IC50 [2] of 1.1 nM. The “Rat hepatocyte CLint” value (Rat hepatocyte) was 70.3 μl/min/10^−6 cells.
Work on `Cc1cc2ncnn2cc1Nc1ncc2c(n1)c(C(C)C)nn2C` [Example 4, 3-isopropyl-1-methyl-N-(7-methyl-[1,2,4]triazolo[1,5-a]pyridin-6-yl)-1H-pyrazolo[4,3-d]pyrimidin-5-amine] yielded a microsomal CLint at 1 μM [1] of 47.3 µL/min/mg, an efflux ratio at 120 min, 5 μM (MDR1, BCRP) of 0.9 and an IC50 [2] of 1.6 nM. For the same compound, the “Rat hepatocyte CLint” value (Rat hepatocyte) was 10.7 μl/min/10^−6 cells.
With `Cc1cc2ncnn2cc1Nc1ncc2c(n1)c([C@H]1CC[C@@H](OC(F)F)CC1)nn2C` [Example 11, 3-((1s,4s)-4-(difluoromethoxy)cyclohexyl)-1-methyl-N-(7-methyl-[1,2,4]triazolo[1,5-a]pyridin-6-yl)-1H-pyrazolo[4,3-d]pyrimidin-5-amine] the microsomal CLint at 1 μM [1] was over 300 µL/min/mg, the efflux ratio at 120 min, 5 μM (MDR1, BCRP) was 1.8 and the IC50 [2] was 0.7 nM. The “Rat hepatocyte CLint” value (Rat hepatocyte) was 190.4 μl/min/10^−6 cells.
Compound `Cc1cc2ncnn2cc1Nc1ncc2c(C)nn(C3CCC(OC(F)F)CC3)c2n1` (centres unmarked) [Example 23, 1-(4-(difluoromethoxy)cyclohexyl)-3-methyl-N-(7-methyl-[1,2,4]triazolo[1,5-a]pyridin-6-yl)-1H-pyrazolo[3,4-d]pyrimidin-6-amine] has a microsomal CLint at 1 μM [1] of 115 µL/min/mg, an efflux ratio at 120 min, 5 μM (MDR1, BCRP) of 0.9 and an IC50 [2] of 0.7 nM. For the same compound, the “Rat hepatocyte CLint” value (Rat hepatocyte) was 21.2 μl/min/10^−6 cells.
`Cc1cc2ncnn2cc1Nc1ncc2c(C)nn(C3COC3)c2n1` [Example 44, 3-methyl-N-(7-methyl-[1,2,4]triazolo[1,5-a]pyridin-6-yl)-1-(oxetan-3-yl)-1H-pyrazolo[3,4-d]pyrimidin-6-amine] showed a microsomal CLint at 1 μM [1] of 8.8 µL/min/mg, an efflux ratio at 120 min, 5 μM (MDR1, BCRP) of 4.3 and an IC50 [2] of 24 nM. The “Rat hepatocyte CLint” value (Rat hepatocyte) was 1.9 μl/min/10^−6 cells.
For `Cc1cc2ncnn2cc1Nc1ncc2c(C)nn(CCC#N)c2n1` [Example 72, 3-(3-methyl-6-((7-methyl-[1,2,4]triazolo[1,5-a]pyridin-6-yl)amino)-1H-pyrazolo[3,4-d]pyrimidin-1-yl)propanenitrile], the microsomal CLint at 1 μM [1] was 5.9 µL/min/mg, the efflux ratio at 120 min, 5 μM (MDR1, BCRP) was 7.5 and the IC50 [2] was 1.8 nM. For the same compound, the “Rat hepatocyte CLint” value (Rat hepatocyte) was 1.0 μl/min/10^−6 cells.
`Cc1cc2ncnn2cc1Nc1ncc2c(C(F)(F)F)nn(C3CCOCC3)c2n1` [Example 17, N-(7-methyl-[1,2,4]triazolo[1,5-a]pyridin-6-yl)-1-(tetrahydro-2H-pyran-4-yl)-3-(trifluoromethyl)-1H-pyrazolo[3,4-d]pyrimidin-6-amine] showed a microsomal CLint at 1 μM [1] of 54.7 µL/min/mg, an efflux ratio at 120 min, 5 μM (MDR1, BCRP) of 1.5 and an IC50 [2] of 5.2 nM. The “Rat hepatocyte CLint” value (Rat hepatocyte) was 7.2 μl/min/10^−6 cells.
Work on `Cc1cc2nccn2cc1Nc1ncc2c(C)nn(C(C)C)c2n1` [Example 60, 1-isopropyl-3-methyl-N-(7-methylimidazo[1,2-a]pyridin-6-yl)-1H-pyrazolo[3,4-d]pyrimidin-6-amine] yielded a microsomal CLint at 1 μM [1] of 20.4 µL/min/mg, an efflux ratio at 120 min, 5 μM (MDR1, BCRP) of 0.7 and an IC50 [2] of 13.5 nM. The “Rat hepatocyte CLint” value (Rat hepatocyte) was 22.7 μl/min/10^−6 cells.
`Cc1cc2ncnn2cc1Nc1ncc2c(C)nn(C3CCCCC3)c2n1` [Example 20, 1-cyclohexyl-3-methyl-N-(7-methyl-[1,2,4]triazolo[1,5-a]pyridin-6-yl)-1H-pyrazolo[3,4-d]pyrimidin-6-amine] showed a microsomal CLint at 1 μM [1] of 117 µL/min/mg, an efflux ratio at 120 min, 5 μM (MDR1, BCRP) of 0.8 and an IC50 [2] of 1.3 nM. The “Rat hepatocyte CLint” value (Rat hepatocyte) was 52.0 μl/min/10^−6 cells.
For `Cc1cc2ncnn2cc1Nc1ncc2c(C)nn(C3CCOCC3)c2n1` [Example 13, 3-methyl-N-(7-methyl-[1,2,4]triazolo[1,5-a]pyridin-6-yl)-1-(tetrahydro-2H-pyran-4-yl)-1H-pyrazolo[3,4-d]pyrimidin-6-amine], the microsomal CLint at 1 μM [1] was 12.9 µL/min/mg, the efflux ratio at 120 min, 5 μM (MDR1, BCRP) was 2.8 and the IC50 [2] was 3.9 nM. The “Rat hepatocyte CLint” value (Rat hepatocyte) was under 1 μl/min/10^−6 cells.
`Cc1cc2nccn2cc1Nc1ncc2c(C)nn(C3CCOCC3)c2n1` [Example 14, 3-methyl-N-(7-methylimidazo[1,2-a]pyridin-6-yl)-1-(tetrahydro-2H-pyran-4-yl)-1H-pyrazolo[3,4-d]pyrimidin-6-amine] gave a microsomal CLint at 1 μM [1] of 9.9 µL/min/mg, an efflux ratio at 120 min, 5 μM (MDR1, BCRP) of 2.3 and an IC50 [2] of 1.6 nM. For the same compound, the “Rat hepatocyte CLint” value (Rat hepatocyte) was 1.7 μl/min/10^−6 cells.
Compound `Cc1cc2ncnn2cc1Nc1ncc2c(C)nn(C(C)C)c2n1` [Example 59, 1-isopropyl-3-methyl-N-(7-methyl-[1,2,4]triazolo[1,5-a]pyridin-6-yl)-1H-pyrazolo[3,4-d]pyrimidin-6-amine] has a microsomal CLint at 1 μM [1] of 20.2 µL/min/mg, an efflux ratio at 120 min, 5 μM (MDR1, BCRP) of 0.7 and an IC50 [2] of 4.5 nM. The “Rat hepatocyte CLint” value (Rat hepatocyte) was 5.5 μl/min/10^−6 cells.
`Cc1cc2ncnn2cc1Nc1ncc2c(n1)c(C1CCOCC1)cn2C` [Example 3, 7-methyl-N-(5-methyl-7-(tetrahydro-2H-pyran-4-yl)-5H-pyrrolo[3,2-d]pyrimidin-2-yl)-[1,2,4]triazolo[1,5-a]pyridin-6-amine] showed a microsomal CLint at 1 μM [1] of 39.7 µL/min/mg, an efflux ratio at 120 min, 5 μM (MDR1, BCRP) of 3.1 and an IC50 [2] of 10.2 nM. The “Rat hepatocyte CLint” value (Rat hepatocyte) was 9.8 μl/min/10^−6 cells.
